Data reported in US6730666B1, “Pharmaceutical compositions comprising porphyrins and some novel porphyrin derivatives” (Yeda Research and Development Co. Ltd., priority 1998, dated 2004).
Where two headings read alike, the source gives them in different places.

Assays:
[1] = tested on: Lewis lung carcinoma (LLC) lung metastasis; test: Lewis lung carcinoma lung metastasis model; assay type: in vivo, C57 black mice; design: Inhibitory activity in vivo, LLC tumor model (as % of total inhibition): reference not given here; conditions: for Inhibitory activity in vivo, LLC tumor model (as % of total inhibition): 25 μg/gram, LLC murine tumor model, lung metastasis
Method: (vii) Lewis lung carcinoma tumor assay. Murine Lewis lung carcinoma (LLC) D122 cells (1×10^6 cells/[…] PBS) were injected into the foot pads of 10-week old C57 black mice (O'Reilly et al, 1994). Twenty five μg/g of body mass of porphyrin or corrole compound dissolved in PBS were injected IP twice a week to the treated group, and tumor size was measured periodically in order to follow primary tumor formation. In order to evaluate inhibition of lung metastasis by porphyrin or corrole compound, the primary tumors were allowed to develop over a period of six weeks to a volume of approximately 8 mm^3; after which the tumors were removed and metastases were allowed to develop for four weeks. During this time the treated group received 25 μg/g of body mass of porphyrin or corrole compound IP twice a week. Subsequently the mice were sacrificed, dissected and the lungs removed and photographed. The extent of lung metastasis was measured by weighing the lungs.
After establishing the capacity of P1 to inhibit primary tumor growth, the capacity of P1 to inhibit lung metastasis formation was measured as described in Methods, section (vi). Mice were injected with LLC cells (200,000 cells per mouse) into the foot pad and primary tumors were allowed to develop over a period of 3 to 4 weeks to a volume of approximately 8 mm^3. Subsequently, primary tumors were removed through amputation and lung metasases were allowed to develop for four weeks before the mice were sacrificed. The extent of lung metastasis at this point was examined by gross morphological examination and by determining the gain in lung weight. […] In order to quantitate the results from these experiments, the lungs from all mice were weighed and evaluated for the extent of metastatic growth.

[2] = molecular target: T1, FGFR-1 alkaline phosphatase fusion protein (FRAP) (Mus musculus, UniProt P16092); test: Binding of soluble FGFR-1 alkaline phosphatase fusion protein (FRAP) to bFGF immobilized on heparin (Screen AP assay); conditions: binding of FGF to FGFR; Methods section (ii); read-out: Screen AP assay (IC50)
T1 construct: soluble FGFR-1 ectodomain alkaline phosphatase fusion protein (FRAP); made in house; host or cells: NIH 3T3 cells (conditioned medium)
T1 sequence (P16092 22-376 limits assumed): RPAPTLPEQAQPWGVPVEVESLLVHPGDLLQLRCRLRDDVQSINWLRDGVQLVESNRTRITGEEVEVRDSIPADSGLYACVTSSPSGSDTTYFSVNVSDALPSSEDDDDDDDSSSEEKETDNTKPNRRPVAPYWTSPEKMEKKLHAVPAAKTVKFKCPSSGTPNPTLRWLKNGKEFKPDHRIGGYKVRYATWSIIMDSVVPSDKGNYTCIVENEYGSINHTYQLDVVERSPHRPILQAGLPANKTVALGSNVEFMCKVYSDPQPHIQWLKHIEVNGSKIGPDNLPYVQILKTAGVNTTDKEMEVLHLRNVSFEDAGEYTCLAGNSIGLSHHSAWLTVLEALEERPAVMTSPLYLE
Method: (ii) Binding of soluble FGFR-1 alkaline phosphatase fusion protein (FRAP) to immobilized bFGF. […] The end-point of the assay measured enzymatically the formation of FGF-receptor complexes quantitated by the specifically associated alkaline phosphatase (AP) catalyzed chromogenic product.
Subsequently, 200 μl of FRAP condition medium and porphyrin/corrole compound were added and incubated together for 2 h.
In order to identify inhibitors of FGF-FGFR interactions, an assay for testing FGFR-ligand binding was developed. The system is composed of bFGF bound to a heparin matrix to which soluble FGFR-1 ectodomain alkaline phosphatase fusion protein (FRAP) and the screened compounds are added (see Methods, section (ii)).

FGFR-1 [3] = molecular target: T2, FGFR-1 (Mus musculus, UniProt P16092); test: Binding of 125I-bFGF to CHO cells expressing FGFR-1
Excerpt: First we utilized a cell-free system, measuring the binding of radiolabeled bFGF to a dimeric soluble FGFR-1 fused to alkaline phosphatase. The soluble FRAP was immobilized using an anti-alkaline phosphatase antibody prebound to agarose-protein A beads (see Methods, section (iii)). As a: second experimental model, we used CHO cells deficient in heparan sulfate and genetically engineered to express FGFR-1 (Methods, section (iv)).

soluble FGFR-1 (FRAP) = molecular target: T3, soluble FGFR-1 (FRAP) (Mus musculus, UniProt P16092); test: Binding of 125I-bFGF to immobilized soluble FGFR-1 (FRAP), cell-free
T3 sequence (P16092 22-376 limits assumed): T1 sequence (P16092 22-376 limits assumed)
Excerpt: First we utilized a cell-free system, measuring the binding of radiolabeled bFGF to a dimeric soluble FGFR-1 fused to alkaline phosphatase. […] As a: second experimental model, we used CHO cells deficient in heparan sulfate and genetically engineered to express FGFR-1 (Methods, section (iv)).

FGFR-1 [4] = molecular target: T2, FGFR-1; test: Covalent cross-linking of 125I-bFGF to CHO cells transfected with FGFR-1; assay type: binding; design: expressed in transfected cells; host or cells: CHO cells deficient in heparan sulfate; conditions: FIG. 2
Method: Binding of ^125I-bFGF to confluent monolayers of PGFR-1 expressing CHO cells or ^125I-FGF9 to FGFR-3 expressing CHO cells, was performed as described in Methods, section (iv), in the presence or absence of P1 (Inhibitor). After 90 min, disuccinylimidyl suberate [DSS]
(iv) Binding of ^125I-bFGF and ^125I-FGF9 to cells. Confluent cultures of CHO cells expressing FGFR-1(Yayon et al, 1991) or FGFR-3 (Hecht et al, 1995) in 24-well plates (Falcon) were precooled and washed twice with cold DMEM supplemented with 20 mM Hepes (pH 7.5) and 0.1% bovine serum albumin (DMEM/BSA). They were then incubated for 1.5 h at 4° C. with ^125I-bFGF (2 ng/ml) and increasing concentrations of porphyrin/corrole compound. The binding medium was discarded and the cells were washed once with ice-cold DMEM/BSA and twice with cold PBS (pH 7.5) containing 1.6M NaCl. […] Non-specific binding was determined in the presence of a 100-fold excess of unlabeled bFGF.
In order to unequivocally determine the specificity of the binding inhibition, chemical cross-linking of ^125I-bFGF and ^125I-FGF9 to CHO cells transfected with FGFR-1 and FGFR-3, respectively, was carried out as described in Methods, section (iv), in the absence or presence of increasing concentrations of P1.

[5] = read-out: Cellular receptor binding (IC50), binding of FGF to FGFR, Methods section (iv)
[6] = read-out: Soluble receptor binding (IC50), binding of FGF to FGFR, Methods section (iii)

T2 sequence (P16092 22-822): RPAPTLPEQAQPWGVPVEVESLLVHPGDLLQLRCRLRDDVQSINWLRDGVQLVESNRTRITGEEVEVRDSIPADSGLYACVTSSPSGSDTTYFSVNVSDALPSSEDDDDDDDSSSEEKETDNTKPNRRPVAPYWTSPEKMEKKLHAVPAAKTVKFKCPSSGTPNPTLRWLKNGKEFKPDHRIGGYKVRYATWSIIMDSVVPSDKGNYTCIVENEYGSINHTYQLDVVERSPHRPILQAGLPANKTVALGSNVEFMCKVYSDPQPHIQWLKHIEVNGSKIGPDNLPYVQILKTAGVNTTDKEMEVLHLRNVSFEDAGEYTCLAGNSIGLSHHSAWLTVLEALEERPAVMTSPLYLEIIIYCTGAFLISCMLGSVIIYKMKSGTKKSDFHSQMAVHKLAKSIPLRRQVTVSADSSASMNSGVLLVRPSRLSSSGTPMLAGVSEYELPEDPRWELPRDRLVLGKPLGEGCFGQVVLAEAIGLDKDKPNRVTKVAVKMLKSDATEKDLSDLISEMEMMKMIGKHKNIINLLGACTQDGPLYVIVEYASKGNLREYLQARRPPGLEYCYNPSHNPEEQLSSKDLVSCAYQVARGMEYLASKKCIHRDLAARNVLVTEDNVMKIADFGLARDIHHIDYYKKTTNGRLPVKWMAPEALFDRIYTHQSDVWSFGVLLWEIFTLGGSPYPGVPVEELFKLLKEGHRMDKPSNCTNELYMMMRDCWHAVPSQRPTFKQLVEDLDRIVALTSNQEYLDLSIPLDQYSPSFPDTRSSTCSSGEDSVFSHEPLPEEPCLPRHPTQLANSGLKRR

| Compound | Inhibitory activity in vivo, LLC tumor model (as % of total inhibition) [1] [%] | IC50 [2] [nM] | IC50 (FGFR-1 [3]) [nM] | also measured |
| --- | --- | --- | --- | --- |
| C[n+]1ccccc1-c1c2nc(c(-c3cccc[n+]3C)c3ccc([nH]3)c(-c3cccc[n+]3C)c3nc(c(-c4cccc[n+]4C)c4ccc1[nH]4)C=C3)C=C2 (single isomer, unassigned) [Compound P7, 5,10,15,20-Tetrakis-(N-methyl-2-pyridylium)-21H,23H-porphine tetraiodide] | 90 |  |  |  |
| COc1ccc(-c2c3nc(c(-c4ccc(OC)cc4)c4ccc([nH]4)c(-c4ccc(OC)cc4)c4nc(c(-c5ccc(OC)cc5)c5ccc2[nH]5)C=C4)C=C3)cc1 [Compound P3, 5,10,15,20-Tetrakis(4-methoxyphenyl)-21H,23H-porphine] |  | > 10000 |  |  |
| C[N+](C)(C)c1ccc(-c2c3nc(c(-c4ccc([N+](C)(C)C)cc4)c4ccc([nH]4)c(-c4ccc([N+](C)(C)C)cc4)c4nc(c(-c5ccc([N+](C)(C)C)cc5)c5ccc2[nH]5)C=C4)C=C3)cc1 [Compound P5, 5,10,15,20-Tetrakis[4-(trimethylammonio)phenyl]-21H,23H-porphine tetra-p-tosylate] | 75 | 100 | 1800 | IC50 (soluble FGFR-1 (FRAP)): 900 nM |
| C[n+]1ccc(-c2c3nc(c(-c4cc[n+](C)cc4)c4ccc([nH]4)c(-c4cc[n+](C)cc4)c4nc(c(-c5cc[n+](C)cc5)c5ccc2[nH]5)C=C4)C=C3)cc1 [Compound P8, 5,10,15,20-Tetrakis-(N-methyl-4-pyridylium)-21H,23H-porphine tetraiodide] | 90 | 95 |  | IC50 (FGFR-1 [3]; Cellular receptor binding (IC50), binding of FGF to FGFR, Methods section (iv)): 1300 nM; IC50 (soluble FGFR-1 (FRAP); Soluble receptor binding (IC50), binding of FGF to FGFR, Methods section (iii)): 950 nM |
| C[n+]1ccc(C2=Cc3cc4[nH]c(cc5nc(cc6[nH]c(cc2n3)cc6-c2cc[n+](C)cc2)C=C5c2cc[n+](C)cc2)cc4-c2cc[n+](C)cc2)cc1 [Compound P10, 3,8,13,18-Tetrakis(N-methyl-4-pyridylium)-21H,23H-porphine tetraiodide] |  | 80 |  | IC50 (FGFR-1 [3]; [5]): 1900 nM; IC50 (soluble FGFR-1 (FRAP); [6]): 850 nM |
| O=C(O)c1ccc(-c2c3nc(c(-c4ccc(C(=O)O)cc4)c4ccc([nH]4)c(-c4ccc(C(=O)O)cc4)c4nc(c(-c5ccc(C(=O)O)cc5)c5ccc2[nH]5)C=C4)C=C3)cc1 [Compound P11, 5,10,15,20-Tetrakis(4-carboxylatophenyl) 21H,23H-porphine tetraammonium] |  | 500 | > 10000 |  |
| C[n+]1cccc(-c2c3nc(c(-c4ccc[n+](C)c4)c4ccc([nH]4)c(-c4ccc[n+](C)c4)c4nc(c(-c5ccc[n+](C)c5)c5ccc2[nH]5)C=C4)C=C3)c1.Cc1ccc(S(=O)(=O)[O-])cc1.Cc1ccc(S(=O)(=O)[O-])cc1.Cc1ccc(S(=O)(=O)[O-])cc1.Cc1ccc(S(=O)(=O)[O-])cc1 [Compound P12, 5,10,15,20-Tetrakis(N-methyl-3-pyridylium)-21H,23H-porphine tetra-p-tosylate] | 0 |  |  | IC50 (FGFR-1 [3]; [5]): > 10000 nM; IC50 (soluble FGFR-1 (FRAP); [6]): 10000 nM |
| C[n+]1cccc(-c2c3nc(c(-c4ccc[n+](C)c4)c4ccc([nH]4)c(-c4ccc[n+](C)c4)c4nc(c(-c5ccc[n+](C)c5)c5ccc2[nH]5)C=C4)C=C3)c1 [Compound P13, 5,10,15,20-Tetrakis(N-methyl-3-pyridylium)-21H,23H-porphine tetraiodide] |  |  | > 10000 | IC50 (soluble FGFR-1 (FRAP)): > 10000 nM |
| C[n+]1ccc(-c2c3nc(c(-c4c(F)c(F)c(F)c(F)c4F)c4ccc([nH]4)c(-c4cc[n+](C)cc4)c4nc(c(-c5c(F)c(F)c(F)c(F)c5F)c5ccc2[nH]5)C=C4)C=C3)cc1 [Compound P17, 5,15-Bis(pentafluorophenyl)-10,20-bis(N-methyl-4-pyridylium)-21H,23H-porphine diiodide] | 40 |  | 30 | IC50 (soluble FGFR-1 (FRAP)): 20 nM |
| C[n+]1ccc(-c2c3nc(c(-c4cc[n+](C)cc4)c4ccc([nH]4)c(-c4c(F)c(F)c(F)c(F)c4F)c4nc(c(-c5c(F)c(F)c(F)c(F)c5F)c5ccc2[nH]5)C=C4)C=C3)cc1 [Compound P18, 5,10-Bis(pentafluorophenyl)-15,20-bis(N-methyl-4-pyridylium)-21H,23H-porphine diiodide] | 50 |  | 100 | IC50 (soluble FGFR-1 (FRAP)): 75 nM |
| C[n+]1ccc(-c2c3nc(c(-c4cc[n+](C)cc4)c4ccc([nH]4)c(-c4c(F)c(F)c(NCCCN)c(F)c4F)c4nc(c(-c5cc[n+](C)cc5)c5ccc2[nH]5)C=C4)C=C3)cc1 [Compound P19] |  | 100 |  | IC50 (FGFR-1 [3]; [5]): 2000 nM |
| C[n+]1ccccc1-c1c(F)c(F)c(-c2c3nc(c(-c4c(F)c(F)c(-c5cccc[n+]5C)c(F)c4F)c4ccc([nH]4)c4ccc([nH]4)c(-c4c(F)c(F)c(-c5cccc[n+]5C)c(F)c4F)c4ccc2[nH]4)C=C3)c(F)c1F [Compound P21, 5,10,15-Tris[2,3,5,6-tetrafluorophenyl-4-(N-methyl-2-pyridylium)]-21H,23H-corrole triiodide] | 200 |  |  | Inhibition of lung metastasis in LLC model, in words ([1]; 25 μg/g of body mass IP): highly active in vivo; Concentration inhibiting lung metastasis formation in vivo ([1]; mouse, in vivo): 5 mg/kg body weight; Inhibition of bFGF binding to immobilized FRAP, in words (soluble FGFR-1 (FRAP); FIG. 8B): inhibit bFGF binding in vitro |
| Cc1ccc(C(=O)Nc2ccc(S(=O)(=O)O)c3cc(S(=O)(=O)O)cc(S(=O)(=O)O)c23)cc1NC(=O)c1cccc(NC(=O)Nc2cccc(C(=O)Nc3cc(C(=O)Nc4ccc(S(=O)(=O)O)c5cc(S(=O)(=O)O)cc(S(=O)(=O)O)c45)ccc3C)c2)c1 [Suramin, reference compound] |  |  |  | Inhibition of bFGF-receptor complex formation (cross-linking), in words (FGFR-1 [4]): demonstrated FGF receptor binding inhibition |
| Tetrakis(4-cumyloxyphenoxy)phthalocyanine [Compound P4] |  | > 10000 |  |  |
